Each block holds one molecule with its values, some of them ahead of it.
Columns and labels:
[1] = molecular target: human recombinant PAK1 (kinase domain) (Homo sapiens, UniProt Q13153); test: Z'-LYTE FRET kinase assay, PAK1 inhibition; format: biochemical; conditions: for PAK1 inhibitory activity and selectivity of NVS-PAK1-1 conjugates: tested for PAK1, PAK2 and PAK4 inhibition (Table S1)
PAK1 [2] = molecular target: T1, PAK1 (Homo sapiens, UniProt Q13153); test: PAK1 degradation by immunoblot in MCF7 and OVCAR3 cells; format: cell-based
MOLT4 cells proteome = test: Global multiplexed mass spectrometry proteomics in MOLT4 cells; format: cell-based, human; conditions: 1 µM, 5 hr
Nluc-PAK1 = Nluc-PAK1 (Homo sapiens, UniProt Q13153+Q96SW2); test: Nluc-PAK1 luciferase quantitation of PAK1 expression; format: cell-based
OMM1 cells = test: MTT cell proliferation, OMM1; format: cell-based; conditions: MTT assay, 96 hr, PAK2-dependent cells
HEY-A8 cells = test: MTT cell proliferation, HEY-A8; format: cell-based; conditions: MTT assay, 96 hr, PAK2-dependent cells
PAK1 [3] = molecular target: T1, PAK1; test: PAK1 degradation in Panc1 cells; format: cell-based; conditions: compared with BJG-05-014 and BJG-05-027, Figure S2
OVCAR3 cells = test: MTT cell proliferation, OVCAR3; format: cell-based; conditions: for EC50: Homo sapiens, OVCAR-3, 96 h, read-out: EC50 anti-proliferative, OVCAR3
[4] = test system: phosphorylation of MEK1 at S298 and of ERK; test: MEK and ERK phosphorylation by immunoblot in OVCAR3 and MCF7 cells; format: cell-based; conditions: 10 nM, 24 hr
MCF7 cells = test: MTT cell proliferation, MCF7; format: cell-based; conditions: for EC50: Homo sapiens, MCF7, 96 h, read-out: EC50 anti-proliferative, MCF7
[5] = molecular target: human recombinant PAK2 (full length) (Homo sapiens, UniProt Q13177); test: Z'-LYTE FRET kinase assay, PAK2 inhibition; format: biochemical
[6] = cited from earlier work
[7] = MCF7 and OVCAR3 cells, 24 hr treatment

Chain of human recombinant PAK2 (full length) (Q13177 whole entry): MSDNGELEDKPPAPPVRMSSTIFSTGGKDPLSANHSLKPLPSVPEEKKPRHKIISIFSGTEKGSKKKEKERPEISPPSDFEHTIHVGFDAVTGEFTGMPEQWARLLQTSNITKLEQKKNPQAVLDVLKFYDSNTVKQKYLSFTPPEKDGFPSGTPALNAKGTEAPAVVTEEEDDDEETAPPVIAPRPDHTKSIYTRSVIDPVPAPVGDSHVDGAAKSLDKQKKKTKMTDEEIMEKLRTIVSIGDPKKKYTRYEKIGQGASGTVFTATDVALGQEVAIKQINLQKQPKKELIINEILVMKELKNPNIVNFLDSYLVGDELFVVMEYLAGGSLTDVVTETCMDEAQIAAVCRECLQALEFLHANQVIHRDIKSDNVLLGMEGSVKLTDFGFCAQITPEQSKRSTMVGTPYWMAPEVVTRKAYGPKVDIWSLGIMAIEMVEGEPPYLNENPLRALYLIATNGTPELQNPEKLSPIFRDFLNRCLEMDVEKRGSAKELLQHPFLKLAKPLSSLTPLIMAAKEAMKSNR
Chain of human recombinant PAK1 (kinase domain) (Q13153 270-521 limits assumed): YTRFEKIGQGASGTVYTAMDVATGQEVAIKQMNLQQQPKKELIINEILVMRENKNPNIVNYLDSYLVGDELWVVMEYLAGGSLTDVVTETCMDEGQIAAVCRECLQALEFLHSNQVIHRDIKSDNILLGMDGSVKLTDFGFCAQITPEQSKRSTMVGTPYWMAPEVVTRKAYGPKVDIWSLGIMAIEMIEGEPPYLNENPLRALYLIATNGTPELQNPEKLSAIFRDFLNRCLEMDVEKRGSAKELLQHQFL
T1 sequence (Q13153 whole entry): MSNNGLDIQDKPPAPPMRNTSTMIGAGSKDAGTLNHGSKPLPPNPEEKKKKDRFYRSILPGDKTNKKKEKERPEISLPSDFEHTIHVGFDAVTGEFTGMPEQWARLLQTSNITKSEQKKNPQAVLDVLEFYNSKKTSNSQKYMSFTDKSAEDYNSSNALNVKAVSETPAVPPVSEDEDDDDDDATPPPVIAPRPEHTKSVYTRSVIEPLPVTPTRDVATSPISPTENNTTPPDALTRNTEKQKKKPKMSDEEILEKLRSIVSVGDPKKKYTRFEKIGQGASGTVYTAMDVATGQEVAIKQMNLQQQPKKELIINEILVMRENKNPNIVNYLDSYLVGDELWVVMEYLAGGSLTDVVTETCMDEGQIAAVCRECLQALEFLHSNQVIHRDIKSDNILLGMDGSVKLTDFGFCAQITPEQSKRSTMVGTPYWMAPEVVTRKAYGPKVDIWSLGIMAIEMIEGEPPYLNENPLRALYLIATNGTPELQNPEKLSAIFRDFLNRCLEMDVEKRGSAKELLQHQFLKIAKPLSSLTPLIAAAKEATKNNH
Chain of Nluc-PAK1 (Q13153 whole entry): as above
Chain of Nluc-PAK1 (Q96SW2 whole entry): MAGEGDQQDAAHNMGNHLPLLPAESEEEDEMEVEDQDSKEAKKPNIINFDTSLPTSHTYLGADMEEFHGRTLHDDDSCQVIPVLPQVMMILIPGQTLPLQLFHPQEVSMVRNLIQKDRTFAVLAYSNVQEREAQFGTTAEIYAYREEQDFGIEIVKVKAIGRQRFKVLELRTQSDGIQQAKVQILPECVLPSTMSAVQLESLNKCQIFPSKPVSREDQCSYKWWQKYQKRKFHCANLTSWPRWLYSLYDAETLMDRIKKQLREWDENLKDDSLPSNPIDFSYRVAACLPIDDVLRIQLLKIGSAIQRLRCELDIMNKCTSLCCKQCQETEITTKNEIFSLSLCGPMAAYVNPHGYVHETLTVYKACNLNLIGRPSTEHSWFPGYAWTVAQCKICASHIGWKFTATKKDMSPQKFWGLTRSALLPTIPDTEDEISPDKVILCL
Chain of Nluc-PAK1 (Q16531 whole entry partner): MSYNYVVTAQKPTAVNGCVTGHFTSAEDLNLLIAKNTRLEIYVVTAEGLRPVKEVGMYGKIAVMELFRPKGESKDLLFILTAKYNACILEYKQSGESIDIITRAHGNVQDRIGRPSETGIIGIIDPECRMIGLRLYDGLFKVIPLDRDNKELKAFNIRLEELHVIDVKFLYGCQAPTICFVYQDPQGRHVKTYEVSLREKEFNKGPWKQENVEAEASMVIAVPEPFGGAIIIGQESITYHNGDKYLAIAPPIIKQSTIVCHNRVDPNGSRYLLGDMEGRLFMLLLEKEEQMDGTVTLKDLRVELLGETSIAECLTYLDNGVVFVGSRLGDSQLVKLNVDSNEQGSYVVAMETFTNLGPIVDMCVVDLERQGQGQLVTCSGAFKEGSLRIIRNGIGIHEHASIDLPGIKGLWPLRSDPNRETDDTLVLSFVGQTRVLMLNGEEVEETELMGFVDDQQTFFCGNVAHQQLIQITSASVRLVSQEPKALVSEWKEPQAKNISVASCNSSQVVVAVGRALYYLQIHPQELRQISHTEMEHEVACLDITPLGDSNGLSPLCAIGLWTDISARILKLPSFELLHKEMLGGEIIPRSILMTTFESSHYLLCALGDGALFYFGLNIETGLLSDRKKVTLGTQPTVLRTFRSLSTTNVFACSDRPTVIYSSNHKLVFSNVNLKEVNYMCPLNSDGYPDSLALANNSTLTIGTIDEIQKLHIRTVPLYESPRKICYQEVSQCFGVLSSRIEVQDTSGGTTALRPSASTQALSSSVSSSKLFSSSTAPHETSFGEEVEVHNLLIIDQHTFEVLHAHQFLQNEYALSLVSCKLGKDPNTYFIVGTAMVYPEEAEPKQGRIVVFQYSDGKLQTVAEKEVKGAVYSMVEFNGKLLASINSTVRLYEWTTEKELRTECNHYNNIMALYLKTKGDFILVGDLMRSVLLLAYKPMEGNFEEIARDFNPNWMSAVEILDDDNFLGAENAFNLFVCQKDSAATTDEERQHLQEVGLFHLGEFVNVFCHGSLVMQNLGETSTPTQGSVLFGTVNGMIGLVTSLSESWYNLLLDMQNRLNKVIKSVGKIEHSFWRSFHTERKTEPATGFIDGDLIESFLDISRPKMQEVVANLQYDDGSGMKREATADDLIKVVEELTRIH

SMILES: O=C1CCC(N2C(=O)c3cccc(NCCOCCOCCC(=O)N4CC[C@H](NC5=Nc6cc(F)ccc6N(CC(F)F)c6ccc(Cl)cc65)C4)c3C2=O)C(=O)N1 (stereo partly drawn) [BJG-05-014, 4-((2-(2-(3-((S)-3-((2-chloro-5-(2,2-difluoroethyl)-8-fluoro-5H-dibenzo[b,e][1,4]diazepin-11-yl)amino)pyrrolidin-1-yl)-3-oxopropoxy)ethoxy)ethyl)amino)-2-(2,6-dioxopiperidin-3-yl)isoindoline-1,3-dione]
PAK1 inhibitory activity and selectivity of NVS-PAK1-1 conjugates [1]: retained PAK1 inhibitory activity and selectivity

SMILES: O=C1CCC(N2C(=O)c3cccc(NCCCCCNC(=O)N4CC[C@H](NC5=Nc6cc(F)ccc6N(CC(F)F)c6ccc(Cl)cc65)C4)c3C2=O)C(=O)N1 (stereo partly drawn) [BJG-05-027, (3S)-3-((2-chloro-5-(2,2-difluoroethyl)-8-fluoro-5H-dibenzo[b,e][1,4]diazepin-11-yl)amino)-N-(5-((2-(2,6-dioxopiperidin-3-yl)-1,3-dioxoisoindolin-4-yl)amino)pentyl)pyrrolidine-1-carboxamide]
PAK1 inhibitory activity and selectivity of NVS-PAK1-1 conjugates [1]: retained PAK1 inhibitory activity and selectivity

reduction in PAK1 levels by immunoblot (PAK1 [2]; Figure 2A): ~ 50%
concentration at which diminished PAK1 degradation (hook effect) was observed (PAK1 [2]; [7]): ≥ 1 µM
concentration of maximal PAK1 degradation (PAK1 [2]; [7]): 10 nM
PAK1 degradation (PAK1 [2]; MCF7 and OVCAR3 cells, 24 hr treatment, immunoblot): induced degradation of PAK1
time to partial degradation of PAK1 (PAK1 [2]; MCF7 cells, 10 nM): ≤ 4 h
PAK1 degradation on co-treatment with bortezomib (proteasome inhibitor) (PAK1 [2]; co-treatment with bortezomib): prevented PAK1 destabilization
maximal loss of the PAK1 protein achieved (Nluc-PAK1): ≤ 70%
reduction in PAK1 expression (Nluc-PAK1; 10 nM, Nluc-PAK1 cells, 24 hr): approximately 70%
PAK1 degradation profile in Panc1 cells (PAK1 [3]): most promising profile
EC50 (OVCAR3 cells): 100 nM
EC50 (MCF7 cells): 86 nM
IC50 [5]: > 10000 nM
increase of selectivity over PAK2 relative to NVS-PAK-1 ([5]; Table S1): more than ten-fold
SMILES: O=C1CCC(N2C(=O)c3cccc(NCCCCCCCCNC(=O)N4CC[C@H](NC5=Nc6cc(F)ccc6N(CC(F)F)c6ccc(Cl)cc65)C4)c3C2=O)C(=O)N1 (stereo partly drawn) [BJG-05-039, (3S)-3-((2-chloro-5-(2,2-difluoroethyl)-8-fluoro-5H-dibenzo[b,e][1,4]diazepin-11-yl)amino)-N-(8-((2-(2,6-dioxopiperidin-3-yl)-1,3-dioxoisoindolin-4-yl)amino)octyl)pyrrolidine-1-carboxamide]
downregulation of PAK1 in proteomic analysis (MOLT4 cells proteome): significant downregulation of this kinase was not apparent
downregulation of RNF166, Ikaros (IKZF1) and Aiolos (IKZF3) (MOLT4 cells proteome): strongly downregulated
anti-proliferative activity, OMM1 (OMM1 cells): did not show increased efficacy relative to NVS-PAK1-1
PAK1 inhibitory activity and selectivity of NVS-PAK1-1 conjugates [1]: retained PAK1 inhibitory activity and selectivity
anti-proliferative activity, HEY-A8 (HEY-A8 cells): did not show increased efficacy relative to NVS-PAK1-1
phosphorylation of ERK [4]: inhibiting phosphorylation of ERK
phosphorylation of MEK S298 [4]: inhibited phosphorylation of MEK S298

inhibitor activity of linker conjugates of an ATP-competitive PAK1 inhibitor ([1]; Table S1): retained inhibitor activity
SMILES: Cc1ccc(CO)cc1N(Cc1ccccc1C#N)c1nc(Nc2ccc(N3CCN(CCOCCOCCNc4cccc5c4C(=O)N(C4CCC(=O)NC4=O)C5=O)CC3)c(S(C)(=O)=O)c2)ncc1F (centres unmarked) [BJG-05-093, 2-(((2-((4-(4-(2-(2-(2-((2-(2,6-dioxopiperidin-3-yl)-1,3-dioxoisoindolin-4-yl)amino)ethoxy)ethoxy)ethyl)piperazin-1-yl)-3-(methylsulfonyl)phenyl)amino)-5-fluoropyrimidin-4-yl)(5-(hydroxymethyl)-2-methylphenyl)amino)methyl)benzonitrile]

SMILES: CC(C)NC(=O)N1CC[C@H](NC2=Nc3cc(F)ccc3N(CC(F)F)c3ccc(Cl)cc32)C1 [NVS-PAK1-1]
in vivo half-life [6]: short in vivo half-life
EC50 (OVCAR3 cells): 8900 nM
phosphorylation of ERK [4]: no visible impact
phosphorylation of MEK S298 [4]: no visible impact
effect of combination with PAK shRNA on MCF7 cells (MCF7 cells; 100 nM, MCF7 cells with PAK shRNA): lethal
EC50 (MCF7 cells): 11800 nM
IC50 [5]: 824 nM

SMILES: Nc1cccc2c1CN(C1CCC(=O)NC1=O)C2=O (centres unmarked) [lenalidomide]
anti-proliferative activity, OVCAR3 (OVCAR3 cells; MTT assay, 96 hr): lacked significant antiproliferative effects
anti-proliferative activity, MCF7 (MCF7 cells; MTT assay, 96 hr): lacked significant antiproliferative effects

Source: article PMC10029980 (Journal of medicinal chemistry, 2022)
